Entries after “also recorded” stand apart in the source; their conditions may differ.
Legend:
α7^L131G,Y217F-GlyR = biological target: T1, α7^L131G,Y217F-GlyR (Homo sapiens, UniProt P36544, L131G/Y217F); assay: Agonist potency at chimeric channel (Table 9); assay type: cell-based
T1 construct: expressed in transfected cells

α7^Q79S,L131G,Q139L-GlyR = biological target: T2, α7^Q79S,L131G,Q139L-GlyR (Homo sapiens, UniProt P36544, L131G/Q139L/Q79S); assay: cell-based; assay type: cell-based
T2 construct: expressed in transfected cells
T2 sequence (P36544 with tags, fused parts or gaps Q79S/L131G/Q139L): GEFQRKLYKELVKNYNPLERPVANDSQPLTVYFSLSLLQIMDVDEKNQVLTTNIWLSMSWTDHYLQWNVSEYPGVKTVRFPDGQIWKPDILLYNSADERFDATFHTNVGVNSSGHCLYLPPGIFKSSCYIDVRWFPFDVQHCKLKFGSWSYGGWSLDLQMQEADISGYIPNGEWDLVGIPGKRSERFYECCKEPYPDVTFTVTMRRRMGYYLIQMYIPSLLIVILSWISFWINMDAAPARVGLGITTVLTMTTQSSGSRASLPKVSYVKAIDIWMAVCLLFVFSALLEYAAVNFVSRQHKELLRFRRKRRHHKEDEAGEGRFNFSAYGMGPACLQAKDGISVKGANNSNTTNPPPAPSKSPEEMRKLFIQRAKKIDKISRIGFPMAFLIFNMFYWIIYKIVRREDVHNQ

α7^L131A-GlyR = biological target: T3, α7^L131A-GlyR (Homo sapiens, UniProt P36544, L131A); assay: Agonist potency at chimeric channel (Table 9); assay type: cell-based
T3 construct: expressed in transfected cells
T3 sequence (P36544 with tags, fused parts or gaps L131A): as the sequence (P36544 with tags, fused parts or gaps Q79S/L131G/Q139L) above, with S57Q, G109A, L117Q counted along it

α7^L131G,Q139L-GlyR = biological target: T4, α7^L131G,Q139L-GlyR (Homo sapiens, UniProt P36544, L131G/Q139L); assay: Agonist potency at chimeric channel (Table 9); assay type: cell-based
T4 construct: expressed in transfected cells
T4 sequence (P36544 with tags, fused parts or gaps L131G/Q139L): as the sequence (P36544 with tags, fused parts or gaps Q79S/L131G/Q139L) above, with S57Q counted along it

α7^Q79S,L131G-GlyR = biological target: T5, α7^Q79S,L131G-GlyR (Homo sapiens, UniProt P36544, L131G/Q79S); assay: Agonist potency at chimeric channel (Table 9); assay type: cell-based
T5 construct: expressed in transfected cells
T5 sequence (P36544 with tags, fused parts or gaps Q79S/L131G): as the sequence (P36544 with tags, fused parts or gaps Q79S/L131G/Q139L) above, with L117Q counted along it

[1] = biological target: T6, α7^L131G,Q139L,Y217F-5HT3 HC (Homo sapiens, UniProt P36544, L131G/M226I/Q139L/T225I/Y217F); assay: Agonist potency at chimeric channel (Table 9); assay type: cell-based; conditions: α7^L131G,Q139L,Y217F-5HT3 HC
T6 construct: expressed in transfected cells
T6 sequence (P36544 with tags, fused parts or gaps L131G/Q139L/Y217F/T225I/M226I limits assumed): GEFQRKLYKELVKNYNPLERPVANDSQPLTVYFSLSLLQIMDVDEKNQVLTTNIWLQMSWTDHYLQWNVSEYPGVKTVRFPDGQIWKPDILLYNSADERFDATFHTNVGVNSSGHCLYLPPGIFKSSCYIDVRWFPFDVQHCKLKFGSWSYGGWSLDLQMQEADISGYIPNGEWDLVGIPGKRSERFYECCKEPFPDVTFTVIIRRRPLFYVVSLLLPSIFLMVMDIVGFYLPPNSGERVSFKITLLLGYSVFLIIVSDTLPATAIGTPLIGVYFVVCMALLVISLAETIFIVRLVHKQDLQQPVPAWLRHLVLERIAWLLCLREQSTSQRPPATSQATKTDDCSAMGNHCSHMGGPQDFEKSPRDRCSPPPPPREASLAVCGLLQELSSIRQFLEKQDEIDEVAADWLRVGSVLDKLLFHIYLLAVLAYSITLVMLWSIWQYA

[2] = system: mouse cortical neurons transfected with α7^L131G,Q139L,Y217F-GlyR; assay: Action potential firing of transfected cortical neurons; assay type: cell-based; conditions: 10 nM; even with >6-fold greater injected current
Text: FIGS. 9A-9D show activity of agonists on chimeric LGICs with a L131G mutation. FIG. 9A) A graph of EC50s for L131 LBD mutants against known agonists normalized to the unmodified α7-GlyR chimeric channel (log scale). […] Unmod.: unmodified α7-GlyR chimeric LGIC. FIG. 9D) Action potentials of a cortical neuron from a mouse brain transduced with α7^L131G,Q139L,Y217F-GlyR chimeric LGIC. […] After washout (WASH) of tropisetron, neuron firing is restored.
DNA plasmids containing nucleic acids encoding a α7L131G,Q139L,Y217F-GlyR chimeric LGICs were transfected into mouse cortical neurons. […] Neuron activity was silenced by application of low concentration of agonist (FIG. 9C).

α7^L131G-5HT3 HC = assay: Agonist potency at chimeric channel (Table 9); assay type: cell-based, human
[3] = biological target: T7, α7^L131G,Q139L,Y217F-GlyR (Homo sapiens, UniProt P36544, L131G/Q139L/Y217F); assay: cell-based; assay type: cell-based
T7 construct: expressed in transfected cells
T7 sequence (P36544 with tags, fused parts or gaps L131G/Q139L/Y217F): as the sequence (P36544 with tags, fused parts or gaps Q79S/L131G/Q139L) above, with S57Q, Y195F counted along it

T1 sequence (P36544 with tags, fused parts or gaps L131G/Y217F): as the sequence (P36544 with tags, fused parts or gaps Q79S/L131G/Q139L) above, with S57Q, L117Q, Y195F counted along it

c1cnc2cc3c(cc2n1)[C@@H]1CNC[C@H]3C1 [Varenicline]
potency enhancement over α7-GlyR (α7^L131G,Y217F-GlyR): 21 fold
improved potency over α7-GlyR (α7^Q79S,L131G,Q139L-GlyR): 31 fold
potency enhancement (α7^L131A-GlyR): 8 fold
potency enhancement over α7-GlyR (α7^L131G,Q139L-GlyR): 21 fold
improved potency over α7-GlyR (α7^Q79S,L131G-GlyR): 89 fold
improved potency over a7-5HT3 [1]: 131 fold
suppression of action potential firing [2]: silenced; also recorded: potently suppressed
potency enhancement (α7^L131G-5HT3 HC): 16 fold
improvement in potency over α7-GlyR [3]: 387 fold

— patent US11124554B2, “Modified ligand-gated ion channels and methods of use” (Howard Hughes Medical Institute, priority 2016, dated 2021)
